In ChEMBL document CHEMBL2390951, “Impact of fluorination on proteolytic stability of peptides in human blood plasma” (Bioorg Med Chem, 2013):
Non-standard residues stand in square brackets, D forms with d. Residues, ends and D or L forms follow the SMILES beside them. Abu(4,4,4-F3) = N[C@@H](CC(F)(F)F)C(=O)O; Abu(4,4-F2) = N[C@@H](CC(F)F)C(=O)O; 4Abz = Nc1ccc(C(=O)O)cc1; Abu = CC[C@H](N)C(=O)O

test system: not listed separately; assay: (§1) Proteolytic stability in human plasma assessed as compound degradation at 1:3 compound to plasma ratio after 2 hrs by RP-HPLC analysis relative to control; assay type: ADME, cell-free; details: read-out: Drug degradation

SMILES	metabolised at 2 h [%]
C[C@H](NC(=O)[C@H](C)NC(=O)[C@H](CC(F)F)NC(=O)[C@H](C)NC(=O)[C@H](Cc1ccccc1)NC(=O)[C@H](C)NC(=O)[C@H](C)NC(=O)[C@H](CCCCN)NC(=O)c1ccc(N)cc1)C(=O)N[C@@H](CCCCN)C(=O)O (H-[4Abz]KAAFA[Abu(4,4-F2)]AAK-OH) [listing 1 of 2 here]	≤ 35

test system: Plasma; assay: as §1; assay type: ADME, cell-free; details: 2 h

SMILES	Stability
C[C@H](NC(=O)[C@H](C)NC(=O)[C@H](CC(F)(F)F)NC(=O)[C@H](C)NC(=O)[C@H](Cc1ccccc1)NC(=O)[C@H](C)NC(=O)[C@H](C)NC(=O)[C@H](CCCCN)NC(=O)c1ccc(N)cc1)C(=O)N[C@@H](CCCCN)C(=O)O.O=C(O)C(F)(F)F (H-[4Abz]KAAFA[Abu(4,4,4-F3)]AAK-OH)	Unstable
CC[C@H](NC(=O)[C@H](C)NC(=O)[C@H](Cc1ccccc1)NC(=O)[C@H](C)NC(=O)[C@H](C)NC(=O)[C@H](CCCCN)NC(=O)c1ccc(N)cc1)C(=O)N[C@@H](C)C(=O)N[C@@H](C)C(=O)N[C@@H](CCCCN)C(=O)O.O=C(O)C(F)(F)F (H-[4Abz]KAAFA[Abu]AAK-OH)	Stable
C[C@H](NC(=O)[C@H](C)NC(=O)[C@H](CC(F)(F)F)NC(=O)[C@H](Cc1ccccc1)NC(=O)[C@H](C)NC(=O)[C@H](C)NC(=O)[C@H](CCCCN)NC(=O)c1ccc(N)cc1)C(=O)N[C@@H](C)C(=O)N[C@@H](CCCCN)C(=O)O.O=C(O)C(F)(F)F (H-[4Abz]KAAF[Abu(4,4,4-F3)]AAAK-OH)	Stable
CC[C@H](NC(=O)[C@H](C)NC(=O)[C@H](CCCCN)NC(=O)c1ccc(N)cc1)C(=O)N[C@@H](Cc1ccccc1)C(=O)N[C@@H](C)C(=O)N[C@@H](C)C(=O)N[C@@H](C)C(=O)N[C@@H](C)C(=O)N[C@@H](CCCCN)C(=O)O.O=C(O)C(F)(F)F (H-[4Abz]KA[Abu]FAAAAK-OH)	Stable

test system: not listed separately; assay: Proteolytic stability in Tris-HCl buffer assessed as compound degradation at 20 umol/ml after 2 hrs by RP-HPLC analysis in presence of elastase relative to control; assay type: ADME; details: buffer, 2 h

SMILES	Stability
C[C@H](NC(=O)[C@H](C)NC(=O)[C@H](CC(F)(F)F)NC(=O)[C@H](C)NC(=O)[C@H](Cc1ccccc1)NC(=O)[C@H](C)NC(=O)[C@H](C)NC(=O)[C@H](CCCCN)NC(=O)c1ccc(N)cc1)C(=O)N[C@@H](CCCCN)C(=O)O (H-[4Abz]KAAFA[Abu(4,4,4-F3)]AAK-OH)	Unstable
C[C@H](NC(=O)[C@H](C)NC(=O)[C@H](CC(F)F)NC(=O)[C@H](C)NC(=O)[C@H](Cc1ccccc1)NC(=O)[C@H](C)NC(=O)[C@H](C)NC(=O)[C@H](CCCCN)NC(=O)c1ccc(N)cc1)C(=O)N[C@@H](CCCCN)C(=O)O (H-[4Abz]KAAFA[Abu(4,4-F2)]AAK-OH) [listing 2 of 2 here]	Stable
CC[C@H](NC(=O)[C@H](C)NC(=O)[C@H](Cc1ccccc1)NC(=O)[C@H](C)NC(=O)[C@H](C)NC(=O)[C@H](CCCCN)NC(=O)c1ccc(N)cc1)C(=O)N[C@@H](C)C(=O)N[C@@H](C)C(=O)N[C@@H](CCCCN)C(=O)O (H-[4Abz]KAAFA[Abu]AAK-OH)	Stable
C[C@H](NC(=O)[C@H](C)NC(=O)[C@H](CC(F)(F)F)NC(=O)[C@H](Cc1ccccc1)NC(=O)[C@H](C)NC(=O)[C@H](C)NC(=O)[C@H](CCCCN)NC(=O)c1ccc(N)cc1)C(=O)N[C@@H](C)C(=O)N[C@@H](CCCCN)C(=O)O (H-[4Abz]KAAF[Abu(4,4,4-F3)]AAAK-OH)	Stable
CC[C@H](NC(=O)[C@H](Cc1ccccc1)NC(=O)[C@H](C)NC(=O)[C@H](C)NC(=O)[C@H](CCCCN)NC(=O)c1ccc(N)cc1)C(=O)N[C@@H](C)C(=O)N[C@@H](C)C(=O)N[C@@H](C)C(=O)N[C@@H](CCCCN)C(=O)O (H-[4Abz]KAAF[Abu]AAAK-OH)	Stable

same assay, conditions: elastase in Tris-HCl buffer; read-out: Drug degradation

SMILES	metabolised at 2 h, 20 umol/ml [%]
C[C@H](NC(=O)[C@H](C)NC(=O)[C@H](CC(F)F)NC(=O)[C@H](Cc1ccccc1)NC(=O)[C@H](C)NC(=O)[C@H](C)NC(=O)[C@H](CCCCN)NC(=O)c1ccc(N)cc1)C(=O)N[C@@H](C)C(=O)N[C@@H](CCCCN)C(=O)O (H-[4Abz]KAAF[Abu(4,4-F2)]AAAK-OH)	≤ 35
C[C@H](NC(=O)[C@H](C)NC(=O)[C@H](C)NC(=O)[C@H](Cc1ccccc1)NC(=O)[C@H](CC(F)F)NC(=O)[C@H](C)NC(=O)[C@H](CCCCN)NC(=O)c1ccc(N)cc1)C(=O)N[C@@H](C)C(=O)N[C@@H](CCCCN)C(=O)O (H-[4Abz]KA[Abu(4,4-F2)]FAAAAK-OH)	≤ 35
